Data: patent US12496336B2 (priority 2019, dated 2025)

Tested on: H3N2 A/Hong Kong/1/1968 virus
Type: cell-based, influenza A virus

With `CC(=O)N[C@H]1[C@H]([C@H](O)[C@H](O)CO)OC(C(=O)O)=C[C@@H]1N=C(N)N` [Zanamivir, zanamivir] the “inhibition of cell-to-cell spread of the virus” value was “efficient inhibition of cell-to-cell virus spread”.
